From BindingDB's records for doi:10.1021/bi401014k (Texas A&M University, 2013)

Assays:
Assay in all cases: ANS Fluorescence Displacement Assay
[1] = biological target: T1, Fatty acid-binding protein, liver (Rattus norvegicus, UniProt P02692)
T1 sequence (P02692 whole entry): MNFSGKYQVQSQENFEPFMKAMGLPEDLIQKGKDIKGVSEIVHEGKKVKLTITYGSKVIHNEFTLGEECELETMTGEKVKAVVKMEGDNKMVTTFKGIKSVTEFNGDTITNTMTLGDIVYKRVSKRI
Protocol: (§1) A solution of the L-FABP (500 nM) and ANS (35 µM) was titrated with phytanic acid (0-6.4 µM) or fenofibrate (0-6 µM for the rat L-FABP and 0-4 µM for the human L-FABP) or fenofibric acid (0-300 µM for the rat L-FABP and 0-48 µM for the human L-FABP).

[2] = biological target: Fatty acid-binding protein, liver [T94A] (Homo sapiens, UniProt P07148, T94A)
Protocol: as §1

[3] = biological target: T2, Fatty acid-binding protein, liver (Homo sapiens, UniProt P07148)
T2 sequence (P07148 whole entry): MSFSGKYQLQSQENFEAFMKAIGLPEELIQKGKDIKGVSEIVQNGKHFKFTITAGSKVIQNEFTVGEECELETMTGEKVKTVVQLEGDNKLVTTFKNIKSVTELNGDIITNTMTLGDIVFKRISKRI
Protocol: as §1

Chain of Fatty acid-binding protein, liver [T94A] (P07148 whole entry T94A): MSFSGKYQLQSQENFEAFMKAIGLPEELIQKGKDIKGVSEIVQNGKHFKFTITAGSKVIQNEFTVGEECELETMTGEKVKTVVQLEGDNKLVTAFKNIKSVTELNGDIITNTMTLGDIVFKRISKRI

| Ki [1] | Ki [2] | Ki [3] | Compound |
| --- | --- | --- | --- |
| 100 nM | 15 nM | 15 nM | CC(C)OC(=O)C(C)(C)Oc1ccc(C(=O)c2ccc(Cl)cc2)cc1 [Finofibrate] |
| 5800 nM | 310 nM | 250 nM | CC(C)(Oc1ccc(C(=O)c2ccc(Cl)cc2)cc1)C(=O)O [alpha-1081] |
| 37 nM | 38 nM | 35 nM | CC(C)CCC[C@H](C)CCC[C@H](C)CCC[C@@H](C)CC(=O)O [3,7,11,15-tetramethylhexadecanoic acid] |
